Experimental data published in patent US20260258039A1, “AROMATIC COMPOUND, METHOD FOR PREPARING SAME, AND USE THEREOF IN PREPARATION OF ESTROGEN RECEPTOR DEGRADER” (Hinova Pharmaceuticals Inc., priority 2022, published 2026).
Like-named read-outs stand apart in the source and are kept apart here.

Experiments:
Format in all cases: cell-based
ER [1] = target: T1, ER (Homo sapiens, UniProt P03372); experiment: Degradation activities on ER (Western blotting) in T47D breast cancer cells; details: 24 h, Western blot
T1 construct: T47D breast cancer cells were subcultured in cell culture medium; endogenous in cells; host or cells: T47D breast cancer cells
T1 sequence (P03372 1-595): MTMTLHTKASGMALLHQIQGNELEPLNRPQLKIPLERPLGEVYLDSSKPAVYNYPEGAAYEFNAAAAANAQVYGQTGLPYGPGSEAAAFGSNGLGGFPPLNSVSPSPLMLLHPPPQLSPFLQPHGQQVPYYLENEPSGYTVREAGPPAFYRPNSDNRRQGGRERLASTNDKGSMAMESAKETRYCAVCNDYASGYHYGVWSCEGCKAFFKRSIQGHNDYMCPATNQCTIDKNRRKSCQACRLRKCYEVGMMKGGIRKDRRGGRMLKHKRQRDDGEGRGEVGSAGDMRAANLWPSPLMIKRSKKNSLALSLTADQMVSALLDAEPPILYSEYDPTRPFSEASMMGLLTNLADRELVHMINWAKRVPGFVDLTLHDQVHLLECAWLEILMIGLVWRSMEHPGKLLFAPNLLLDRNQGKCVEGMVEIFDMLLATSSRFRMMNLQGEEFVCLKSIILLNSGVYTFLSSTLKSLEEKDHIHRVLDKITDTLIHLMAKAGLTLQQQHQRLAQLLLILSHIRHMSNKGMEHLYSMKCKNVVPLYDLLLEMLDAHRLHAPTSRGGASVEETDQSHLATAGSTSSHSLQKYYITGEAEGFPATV
Method: T47D breast cancer cells were subcultured in cell culture medium, and the cells in good growth condition were seeded into 6-well plate at 2 mL/well, with 2.5×10^5 cells per well. The cells were incubated overnight in a 37° C. incubator under 5% CO2. The drug was prepared into 10 mM stock solution with dimethyl sulfoxide (DMSO). Prior to use, the stock solution was diluted with DMSO in a ratio of 1:3. […] of the diluted compound was added to the cell culture wells (to ensure a DMSO concentration of 0.1% in the culture system), and each concentration was repeated twice. The plate were gently shaken to mix. Additionally, the negative control wells (containing equal amount of DMSO) and the positive control wells were set up. After 24 hours of culture, the cells were lysed with RIPA cell lysis buffer to extract proteins, and the protein concentration was measured using a BCA kit. The protein loading buffer (5×) was added, and the plate was heated at 100° C. for 5 min. Then, the sample was stored at −20° C. […] of protein collected from each well was loaded onto a polyacrylamide gel for electrophoresis. The protein is transferred from the polyacrylamide gel to a PVDF membrane, blocked with 5% skim milk at room temperature for 1 h, and incubated overnight at 4° C. with primary antibodies Anti-ERα rabbit mAb (CST, Cat #: 8644S) and Anti-GAPDH rabbit mAb (CST, Cat #: 2118L). The membrane was washed three times with TBST solution, with 10 min for each time. The secondary antibody (horseradish peroxidase-labeled goat anti-rabbit IgG) was incubated at room temperature for 2 h, and then the membrane was washed three times with TBST solution, with 10 min for each time. Finally, ECL chromogenic solution was added for color development, and an automatic chemiluminescence instrument was used to take pictures. Images were collected and analyzed.
The degradation activities of the compounds according to the present invention towards ER, as tested by western blotting, are presented in Table 2

ER [2] = target: T1, ER; experiment: Degradation activities on ER (ELISA) in T47D breast cancer cells; details: for DC50: concentration required to degrade 50% of the target protein
Summary of the method: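 T47D cells were seeded at 2.5×10^4/well, grown 3 days at 37 °C, 5% CO2, then exposed 24 h to compound at 100, 25, 6.25, 1.56, 0.39 and […] nM (final). ER protein was quantified by sandwich ELISA with HRP/TMB read at 450 nm, and DC50 and Dmax came from dose-response fits.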

[3] = system: MCF-7 breast cancer cells; experiment: Inhibition of proliferation of MCF-7 breast cancer cells (agarose culture, CellTiter-Glo 3D)
Method: After 1.6% agarose and 0.7% agarose were sterilized at high temperature, they were cooled to around 50° C., and placed in a 42° C. water bath for later use. MCF-7 breast cancer cells were subcultured in complete cell culture medium, and cells in good growth condition were digested and counted for future use. 50 µL of 1.6% agarose mixed with 2× culture medium at a ratio of 1:1 was spread into the bottom of 96-well plate, and allowed to cool and solidify. 0.7% agarose was mixed with diluted cell suspension in a ratio of 1:1, and then 50 µL of the mixture of gel and cells was added to each well, with 2000 cells for each well; the mixture was allowed to cool and solidify at room temperature. 50 μL of culture medium was added to the plate containing cells, and the plate was placed in a 37° C., 5% CO2 incubator and cultured for 24 h. The drug was prepared into 10 mM stock solution with dimethyl sulfoxide (DMSO). The stock solution was diluted in a ratio of 1:3, to obtain 9 concentration gradients. Then, each concentration of compound solution was further diluted with culture medium in 1:250 (to ensure a DMSO concentration of 0.1% in the culture system). Two replicate wells was set for each concentration. 50 μL of the diluted compound solution was added to the cell culture wells (with final concentrations of 10 μM, 3.3 μM, 1.1 μM, 0.37 μM . . . ). The plate was gently shaken for mixing. Additionally, 3 negative control wells only containing cells and 3 blank control wells only containing culture medium were set up (each of the 6 wells was added with 50 μL of DMSO diluted with culture medium in a ration of 1:250). After 15 days of cultivation, the cell plates and CellTiter-Glo 3D Cell Viability were taken out and equilibrated to room temperature in advance. 80 μL of culture medium were aspirated and discarded from the cell plate, and 120 µL of CellTiter-Glo 3D Cell Viability solution was added to each well. The plates were centrifuged at 1200 rpm/min for 5 min, and then placed in the dark and kept for 25 min. The […] were measured using a multi-function microplate reader. The data were analyzed using the Dose-response-inhibition equation in GraphPad Prism8 software, and the IC50 values were obtained, as shown in Table 3.

[4] = T47D cells, 24 h, ELISA, maximum percentage of target protein degraded
[5] = MCF-7 cells, 15 days of cultivation, read-out: IC50
[6] = T47D cells, 24 h, ELISA, maximum percentage of target protein degraded, read-out: Dmax
[7] = Homo sapiens, MCF7, 360 h, MCF-7 cells, 15 days of cultivation, read-out: IC50

| Structure (SMILES) | DC50 (ER [2]; T47D cells, 24 h, ELISA) | Dmax (ER [2]; [6]) | IC50 [3, 7] | also measured |
| --- | --- | --- | --- | --- |
| O=C1CCC(N2Cc3cc(N4CC5(CN(CC6CCN(c7ccc([C@H]8c9ccc(O)cc9OC[C@H]8c8ccccc8)cc7)CC6)C5)C4)ccc3C2=O)C(=O)N1 (stereo partly drawn) [Example 56, 3-(5-(6-((1-(4-((3R,4S)-7-hydroxyl-3-phenyl-chroman-4-yl)phenyl)piperidin-4-yl)methyl)-2,6-diazaspiro[3.3]heptane-2-yl)-1-oxoisoinodolin-2-yl)piperidin-2,6-one] | – | – | – | Percentage reduction of ER (ER [1]; compound concentration 1 nM): 59% |
| O=C1CCC(N2Cc3cc(N4CC5CN(CC6CCN(c7ccc([C@H]8c9ccc(O)cc9OC[C@H]8c8ccccc8)cc7)CC6)CC5C4)ccc3C2=O)C(=O)N1 (stereo partly drawn) [Example 82, 3-(5-(5-((1-(4-((3R,4S)-7-hydroxyl-3-phenylchroman-4-yl)phenyl)piperidin-4-yl)methyl)hexahydropyrrolo[3,4-c]pyrrole-2(1H)-yl)-1-oxoisoinodolin-2-yl)piperidin-2,6-dione] | – | – | – | Percentage reduction of ER (ER [1]; compound concentration 10 nM): 49% |
| O=C1CCC(N2Cc3cc(N4CC5(CCN(CC6CCN(c7ccc([C@H]8c9ccc(O)cc9OC[C@H]8c8ccccc8F)cc7F)CC6)CC5)C4)ccc3C2=O)C(=O)N1 (relative stereo) [Example 87, 3-(5-(7-((1-(2-fluoro-4-(cis-3-(2-fluorophenyl)-7-hydroxybenzopyran-4-yl)phenyl)piperidin-4-yl)methyl)-2,7-diazaspiro[3.5]nonane-2-yl)-1-oxoisoinodolin-2-yl)piperidin-2,6-dione] | < 10 nM | – | – | Dmax (ER [2]; [4]): B (B: 75-50%); IC50 [3, 5]: < 10 nM |
| O=C1CCC(N2Cc3cc(N4CC(N5CCN(c6ccc([C@@H]7c8ccc(O)cc8CC[C@@H]7c7ccccc7)cc6)CC5)C4)ccc3C2=O)C(=O)N1 (stereo partly drawn) [Example 59, 3-(5-(3-(4-(4-((1R,2S)-6-hydroxyl-2-phenyl-1,2,3,4-tetrahydronaphthalen-1-yl)phenyl)piperazine-1-yl)azetidin-1-yl)-1-oxoisoindol-2-yl)piperidin-2,6-dione] | – | – | – | Percentage reduction of ER (ER [1]; compound concentration 10 nM): 54% |
| O=C1CCC(N2Cc3cc(N4CC5(CCN(CC6CCN(c7ccc([C@@H]8c9ccc(O)cc9OC[C@@H]8c8cccc(F)c8)cc7)CC6)CC5)C4)ccc3C2=O)C(=O)N1 (stereo partly drawn) [Example 60, 3-(5-(7-((1-(4-((3,4-cis)-3-(3-fluorophenyl)-7-hydroxyl-chroman-4-yl)phenyl)piperidin-4-yl)methyl)-2,7-diazaspiro[3.5]nonane-2-yl)-1-oxoisoindol-2-yl)piperidin-2,6-dione] | < 10 nM | – | – | Dmax (ER [2]; T47D): 50 to 75%; IC50 ([3]; Homo sapiens, MCF7, 360 h): < 10 nM |
| O=C1CCC(N2Cc3cc(N4CC5(CCN(CC6CCN(c7c(F)cc(C8=C(c9c(F)cccc9F)COc9cc(O)ccc98)cc7F)CC6)CC5)C4)ccc3C2=O)C(=O)N1 (stereo not shown) [Example 42] | < 10 nM | 50 to 75% | 11 to 50 nM | – |
| O=C1CCC(N2Cc3cc(N4CC5(CCN(CC6CCN(c7c(F)cc([C@@H]8c9ccc(O)cc9OC[C@@H]8c8c(F)cccc8F)cc7F)CC6)CC5)C4)ccc3C2=O)C(=O)N1 (stereo partly shown) [Example 40] | < 10 nM | – | < 10 nM | – |
| CC(C)C[C@H]1COc2cc(O)ccc2[C@H]1c1cc(F)c(N2CCC(CN3CCC4(CC3)CN(c3ccc5c(c3)CN(C3CCC(=O)NC3=O)C5=O)C4)CC2)c(F)c1 (stereo partly drawn) [Example 17, 3-(5-(7-((1-(2,6-difluoro-4-(cis-7-hydroxyl-3-isobutylchroman-4-yl)phenyl)piperidin-4-yl)methyl)-2,7-diazaspiro[3.5]nonane-2-yl)-1-oxoisoinodolin-2-yl)piperidin-2,6-dione] | < 10 nM | 50 to 75% | 11 to 50 nM | – |
| O=C1CCC(N2Cc3cc(N4CC5(CCN(CC6CCN(c7ccc([C@@H]8c9ccc(O)cc9OC[C@@H]8c8cccc(F)c8F)cc7F)CC6)CC5)C4)ccc3C2=O)C(=O)N1 (stereo partly drawn) [Example 16, 3-(5-(7-((1-(4-((3S, 4R)-3-(2,3-difluorophenyl)-7-hydroxychroman-4-yl)-2-fluorophenyl)piperidin-4-yl)methyl)-2,7-diazaspiro[3.5]nonane-2-yl)-1-oxoisoinodolin-2-yl)piperidin-2,6-dione] | < 10 nM | 50 to 75% | < 10 nM | – |
| O=C1CCC(N2Cc3cc(N4CCC(N5CC6(CCN(c7ccc([C@@H]8c9ccc(O)cc9CC[C@@H]8c8ccccc8F)cc7)CC6)C5)CC4)ccc3C2=O)C(=O)N1 (stereo partly drawn) [Example 22, 3-(5-(4-(7-(4-((1R,2S)-2-(2-fluorophenyl)-6-hydroxyl-1,2,3,4-tetrahydronaphthalen-1-yl)phenyl)-2,7-diazaspiro[3.5]nonane-2-yl)piperidin-1-yl)-1-oxoisoinodolin-2-yl)piperidin-2,6-dione] | < 10 nM | – | < 10 nM | – |
| O=C1CCC(N2Cc3cc(N4CC5(CCN(CC6CCN(c7ccc(C8=C(c9c(F)cccc9F)COc9cc(O)ccc98)cc7)CC6)CC5)C4)ccc3C2=O)C(=O)N1 (stereo not shown) [Example 18, 3-(5-(7-((1-(4-(3-(2,6-difluorophenyl)-7-hydroxyl-2H-chromene-4-yl)phenyl)piperidin-4-yl)methyl)-2,7-diazaspiro[3.5]nonane-2-yl)-1-oxoisoinodolin-2-yl)piperidin-2,6-dione] | < 10 nM | – | – | Dmax (ER [2]; [4]): A (A: >75%); IC50 [3, 5]: < 10 nM |

Now from value to molecule, other results behind:

| DC50 (ER [2]; T47D cells, 24 h, ELISA) | Dmax (ER [2]; [6]) | IC50 [3, 7] | Structure (SMILES) | also measured |
| --- | --- | --- | --- | --- |
| < 10 nM | > 75% | < 10 nM | O=C1CCC(N2Cc3cc(N4CC5(CCN(CC6CCN(c7ccc(C8=C(c9c(F)cccc9F)COc9cc(O)ccc98)cc7F)CC6)CC5)C4)ccc3C2=O)C(=O)N1 (stereo not shown) [Example 76, 3-(5-(7-((1-(4-(3-(2,6-difluorophenyl)-7-hydroxyl-2H-chromene-4-yl)-2-fluorophenyl)piperidin-4-yl)methyl)-2,7-diazaspiro[3.5]nonane-2-yl)-1-oxoisoinodolin-2-yl)piperidin-6-dione] | – |
| < 10 nM | > 75% | < 10 nM | O=C1CC[C@H](N2Cc3cc(N4CC5(CCN(CC6CCN(c7c(F)cc([C@@H]8c9ccc(O)cc9OC[C@@H]8c8c(F)cccc8F)cc7F)CC6)CC5)C4)ccc3C2=O)C(=O)N1 [Example 45] | – |
